≈ marks a conversion by molar mass, not a printed value.
What was measured:
Macrophomina phaseolina [1] = experiment: In vivo effect on peroxidase activity in Macrophomina phaseoli assessed as DNA content at 0.5 times of IC50 concentration (reference value: 15.5 +/- 0.5 mg/l); assay type: functional
Macrophomina phaseolina [2] = experiment: In vivo effect on peroxidase activity in Macrophomina phaseoli assessed as DNA content at 0.25 times of IC50 concentration (reference value: 15.5 +/- 0.5 mg/l); assay type: functional
Macrophomina phaseolina [3] = experiment: In vivo effect on peroxidase activity in Macrophomina phaseoli assessed as DNA content at 0.1 times of IC50 concentration (reference value: 15.5 +/- 0.5 mg/l); assay type: functional
Macrophomina phaseolina [4] = experiment: In vivo effect on peroxidase activity in Macrophomina phaseoli assessed as RNA content at 0.5 times of IC50 concentration (reference value: 16.1 +/- 0.4 mg/l); assay type: functional
Rhizoctonia solani [5] = experiment: In vivo effect on peroxidase activity in Rhizoctonia solani assessed as total soluble sugar content per gram of dry hyphal at 1 times of IC50 concentration (reference value: 20.1 +/- 0.8 mg/g of dry weight); assay type: functional
Macrophomina phaseolina [6] = experiment: In vivo effect on peroxidase activity in Macrophomina phaseoli assessed as reduced sugar content per gram of dry hyphal at 0.5 times of IC50 concentration (reference value: 7.3 +/- 0.5 mg/g of dry weight); assay type: functional
Rhizoctonia solani [7] = experiment: In vivo effect on peroxidase activity in Rhizoctonia solani assessed as DNA content at 0.25 times of IC50 concentration (reference value: 24 +/- 0.7 mg/l); assay type: functional
Rhizoctonia solani [8] = experiment: In vivo effect on peroxidase activity in Rhizoctonia solani assessed as DNA content at 0.1 times of IC50 concentration (reference value: 24 +/- 0.7 mg/l); assay type: functional
Rhizoctonia solani [9] = experiment: In vivo effect on peroxidase activity in Rhizoctonia solani assessed as RNA content at 2 times of IC50 concentration (reference value: 25 +/- 0.7 mg/l); assay type: functional
Rhizoctonia solani [10] = experiment: In vivo effect on peroxidase activity in Rhizoctonia solani assessed as RNA content at 0.25 times of IC50 concentration (reference value: 25 +/- 0.7 mg/l); assay type: functional
[11] = system: Globisporangium debaryanum; experiment: In vivo effect on peroxidase activity in Pythium debaryanum assessed as DNA content at 2 times of IC50 concentration (reference value: 31 +/- 0.8 mg/l); assay type: functional
[12] = system: Globisporangium debaryanum; experiment: In vivo effect on peroxidase activity in Pythium debaryanum assessed as RNA content at 2 times of IC50 concentration (reference value: 32.2 +/- 0.7 mg/l); assay type: functional
[13] = system: Globisporangium debaryanum; experiment: In vivo effect on peroxidase activity in Pythium debaryanum assessed as RNA content at 0.5 times of IC50 concentration (reference value: 32.2 +/- 0.7 mg/l); assay type: functional
[14] = system: Globisporangium debaryanum; experiment: In vivo effect on peroxidase activity in Pythium debaryanum assessed as RNA content at 0.1 times of IC50 concentration (reference value: 32.2 +/- 0.7 mg/l); assay type: functional
Rhizoctonia solani [15] = experiment: In vivo effect on peroxidase activity in Rhizoctonia solani assessed as non-reducing sugar content per gram of dry hyphal at 0.1 times of IC50 concentration (reference value: 2.8 +/- 0.2 mg/g of dry weight); assay type: functional
Rhizoctonia solani [16] = experiment: In vivo effect on peroxidase activity in Rhizoctonia solani assessed as reduced sugar content per gram of dry hyphal at 0.5 times of IC50 concentration (reference value: 17.3 +/- 1 mg/g of dry weight); assay type: functional
Rhizoctonia solani [17] = experiment: In vivo effect on peroxidase activity in Rhizoctonia solani assessed as reduced sugar content per gram of dry hyphal at 0.25 times of IC50 concentration (reference value: 17.3 +/- 1 mg/g of dry weight); assay type: functional
Rhizoctonia solani [18] = experiment: In vivo effect on peroxidase activity in Rhizoctonia solani assessed as reduced sugar content per gram of dry hyphal at 0.1 times of IC50 concentration (reference value: 17.3 +/- 1 mg/g of dry weight); assay type: functional
Macrophomina phaseolina [19] = experiment: In vivo effect on peroxidase activity in Macrophomina phaseoli assessed as total soluble sugar content per gram of dry hyphal at 1 times of IC50 concentration (reference value: 19.3 +/- 0.7 mg/g of dry weight); assay type: functional
Macrophomina phaseolina [20] = experiment: In vivo effect on peroxidase activity in Macrophomina phaseoli assessed as total soluble sugar content per gram of dry hyphal at 0.5 times of IC50 concentration (reference value: 19.3 +/- 0.7 mg/g of dry weight); assay type: functional
Macrophomina phaseolina [21] = experiment: In vivo effect on peroxidase activity in Macrophomina phaseoli assessed as total soluble sugar content per gram of dry hyphal at 0.1 times of IC50 concentration (reference value: 19.3 +/- 0.7 mg/g of dry weight); assay type: functional
Macrophomina phaseolina [22] = experiment: In vivo effect on peroxidase activity in Macrophomina phaseoli assessed as non-reducing sugar content per gram of dry hyphal at 0.25 times of IC50 concentration (reference value: 12 +/- 0.8 mg/g of dry weight); assay type: functional
Macrophomina phaseolina [23] = experiment: In vivo effect on peroxidase activity in Macrophomina phaseoli assessed as DNA content at 1 times of IC50 concentration (reference value: 15.5 +/- 0.5 mg/l); assay type: functional
Macrophomina phaseolina [24] = experiment: In vivo effect on peroxidase activity in Macrophomina phaseoli assessed as RNA content at 0.1 times of IC50 concentration (reference value: 16.1 +/- 0.4 mg/l); assay type: functional
Fusarium culmorum [25] = experiment: In vivo effect on peroxidase activity in Fusarium culmorum assessed as DNA content at 1 times of IC50 concentration (reference value: 49.5 +/- 1.6 mg/l); assay type: functional
Fusarium culmorum [26] = experiment: In vivo effect on peroxidase activity in Fusarium culmorum assessed as DNA content at 0.5 times of IC50 concentration (reference value: 49.5 +/- 1.6 mg/l); assay type: functional
Fusarium culmorum [27] = experiment: In vivo effect on peroxidase activity in Fusarium culmorum assessed as DNA content at 0.1 times of IC50 concentration (reference value: 49.5 +/- 1.6 mg/l); assay type: functional
Fusarium culmorum [28] = experiment: In vivo effect on peroxidase activity in Fusarium culmorum assessed as RNA content at 1 times of IC50 concentration (reference value: 51.5 +/- 1.5 mg/l); assay type: functional
Fusarium culmorum [29] = experiment: In vivo effect on peroxidase activity in Fusarium culmorum assessed as RNA content at 0.25 times of IC50 concentration (reference value: 51.5 +/- 1.5 mg/l); assay type: functional
Fusarium culmorum [30] = experiment: In vivo effect on peroxidase activity in Fusarium culmorum assessed as RNA content at 0.1 times of IC50 concentration (reference value: 51.5 +/- 1.5 mg/l); assay type: functional
[31] = system: Globisporangium debaryanum; experiment: Inhibition of peroxidase activity in Pythium debaryanum at 0.25 times of IC50 concentration
Fusarium culmorum [32] = experiment: Inhibition of peroxidase activity in Fusarium culmorum at 0.1 times of IC50 concentration
[33] = Inhibition of polyphenoloxidase activity in Fusarium culmorum
[34] = system: Globisporangium debaryanum; experiment: Fungicidal activity against Pythium debaryanum assessed as inhibition of hyphal growth by radial growth test; assay type: functional, organism-based
Rhizoctonia solani [35] = experiment: Fungicidal activity against Rhizoctonia solani assessed as inhibition of hyphal growth by radial growth test; assay type: functional, organism-based
Fusarium culmorum [36] = experiment: Inhibition of peroxidase activity in Fusarium culmorum at 0.5 times of IC50 concentration

SMILES | Activity (Macrophomina phaseolina [1]) [mg/L] | Activity (Macrophomina phaseolina [2]) [mg/L] | Activity (Macrophomina phaseolina [3]) [mg/L] | Activity (Macrophomina phaseolina [4]) [mg/L] | Activity (Rhizoctonia solani [5]) [mg] | Activity (Macrophomina phaseolina [6]) [mg] | Activity (Rhizoctonia solani [7]) [mg/L] | Activity (Rhizoctonia solani [8]) [mg/L] | Activity (Rhizoctonia solani [9]) [mg/L] | Activity (Rhizoctonia solani [10]) [mg/L] | Activity [11] [mg/L] | Activity [12] [mg/L] | Activity [13] [mg/L] | Activity [14] [mg/L] | Activity (Rhizoctonia solani [15]) [mg] | Activity (Rhizoctonia solani [16]) [mg] | Activity (Rhizoctonia solani [17]) [mg] | Activity (Rhizoctonia solani [18]) [mg] | Activity (Macrophomina phaseolina [19]) [mg] | Activity (Macrophomina phaseolina [20]) [mg] | other results
c1ccc(-c2cc3ccccc3[nH]2)cc1 [2-PHENYL-1H-INDOLE] | 8 | 6.8 | 6.4 | 8.3 | 9.8 | 2.9 | 28.9 | 28.3 | 28 | 30 | 23.3 | 24.2 | 11.4 | 32.1 | 14.1 | 16 | 60.3 | 44.3 | 7.1 | 4.3 | Activity (Macrophomina phaseolina [21]): 8.7 mg; Activity (Macrophomina phaseolina [22]): 5.1 mg; Activity (Macrophomina phaseolina [23]): 6.1 mg/L; Activity (Macrophomina phaseolina [24]): 6.7 mg/L; Activity (Fusarium culmorum [25]): 25.3 mg/L; Activity (Fusarium culmorum [26]): 18 mg/L; Activity (Fusarium culmorum [27]): 28.6 mg/L; Activity (Fusarium culmorum [28]): 26.3 mg/L; Activity (Fusarium culmorum [29]): 24.3 mg/L; Activity (Fusarium culmorum [30]): 29.7 mg/L; inhibition [31]: 3.7%; inhibition (Fusarium culmorum [32]): 7.5%; IC50 [33]: 87.6 µg/mL (≈ 453 µM); IC50 [34]: 17.7 µg/mL (≈ 91.6 µM); IC50 (Rhizoctonia solani [35]): 34.6 µg/mL (≈ 179 µM); inhibition (Fusarium culmorum [36]): 53.8%
CC(=O)n1c(-c2ccccc2)cc2ccccc21 | 8.3 | 10.3 | 11.7 | 8.6 | 2.8 | 20.8 | 25.2 | 23.2 | 36.1 | 26.2 | 21.6 | 22.5 | 11.8 | 27 | 2.5 | 5.6 | 9.6 | 9.7 | 34.7 | 31 | Activity (Macrophomina phaseolina [21]): 4.2 mg; Activity (Macrophomina phaseolina [22]): 7.4 mg; Activity (Macrophomina phaseolina [23]): 8.2 mg/L; Activity (Macrophomina phaseolina [24]): 12.9 mg/L; Activity (Fusarium culmorum [25]): 27.2 mg/L; Activity (Fusarium culmorum [26]): 28 mg/L; Activity (Fusarium culmorum [27]): 43.6 mg/L; Activity (Fusarium culmorum [28]): 28.3 mg/L; Activity (Fusarium culmorum [29]): 31.1 mg/L; Activity (Fusarium culmorum [30]): 45.4 mg/L; inhibition [31]: 3%; inhibition (Fusarium culmorum [32]): 85%; IC50 [33]: 41.5 µg/mL (≈ 176 µM); IC50 [34]: 15 µg/mL (≈ 63.8 µM); IC50 (Rhizoctonia solani [35]): 37.5 µg/mL (≈ 159 µM); inhibition (Fusarium culmorum [36]): -7.9%
